Test results reported in ChEMBL document CHEMBL4219269, “Synthesis and anti-staphylococcal activity of novel bacterial topoisomerase inhibitors with a 5-amino-1,3-dioxane linker moiety” (Bioorg Med Chem Lett, 2018).
Converted amounts (≈) assume the structure as drawn.

Tests used:
[1] = target: T1, Voltage-gated inwardly rectifying potassium channel KCNH2 (Homo sapiens, UniProt Q12809); test: Inhibition of human ERG expressed in CHOK1 cells by patch clamp assay; type: cell-based
K562 = test: Antiproliferative activity against human K562 cells; type: cell-based
[2] = Inhibition of human topoisomerase-2 in etoposide-resistant K/VP.5 cells assessed as growth inhibition
Staphylococcus aureus [3] = test: Antibacterial activity against methicillin-sensitive Staphylococcus aureus ATCC 29213 by CLSI method; type: functional
Staphylococcus aureus [4] = test: Antibacterial activity against methicillin-resistant Staphylococcus aureus USA300 by CLSI method; type: functional
[5] = Inhibition of Staphylococcus aureus topoisomerase-4-mediated kinetoplast DNA decatenation after 30 mins by agarose gel electrophoresis
Homo sapiens = species: Homo sapiens; test: Inhibition of human topoisomerase-2 mediated kinetoplast DNA decatenation assessed as remaining activity at 100 uM relative to control
[6] = target: T1, Voltage-gated inwardly rectifying potassium channel KCNH2; test: Inhibition of human ERG expressed in CHO cells using -80 mV holding potential measured after 3 mins; type: cell-based
[7] = Selectivity ratio of IC50 for human K562 cells to MIC for methicillin-sensitive Staphylococcus aureus ATCC 29213; type: toxicity
DNA gyrase = DNA gyrase (Staphylococcus aureus, UniProt P0A0K8+P20831); test: Inhibition of Staphylococcus aureus DNA gyrase supercoiling activity using pBR322 as substrate after 30 mins by agarose gel electrophoresis; type: protein-complex assay
Chain of DNA gyrase (P0A0K8 whole entry): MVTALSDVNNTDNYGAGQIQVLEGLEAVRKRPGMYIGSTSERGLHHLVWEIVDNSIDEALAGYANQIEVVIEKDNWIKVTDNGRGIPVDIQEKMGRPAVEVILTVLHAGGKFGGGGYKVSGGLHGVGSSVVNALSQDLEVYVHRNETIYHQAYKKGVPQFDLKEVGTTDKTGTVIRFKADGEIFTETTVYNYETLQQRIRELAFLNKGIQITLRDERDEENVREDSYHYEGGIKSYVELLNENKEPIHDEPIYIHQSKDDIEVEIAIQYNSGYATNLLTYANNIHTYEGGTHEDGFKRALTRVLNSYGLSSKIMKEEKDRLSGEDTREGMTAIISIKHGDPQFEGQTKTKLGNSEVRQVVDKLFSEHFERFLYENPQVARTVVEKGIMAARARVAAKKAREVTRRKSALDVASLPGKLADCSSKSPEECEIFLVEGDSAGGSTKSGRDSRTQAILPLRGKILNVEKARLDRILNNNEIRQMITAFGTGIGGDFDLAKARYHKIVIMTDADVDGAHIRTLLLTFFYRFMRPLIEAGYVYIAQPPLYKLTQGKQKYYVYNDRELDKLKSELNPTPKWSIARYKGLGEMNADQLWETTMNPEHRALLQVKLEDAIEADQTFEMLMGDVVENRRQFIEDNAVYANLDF
Chain of DNA gyrase (P20831 whole entry): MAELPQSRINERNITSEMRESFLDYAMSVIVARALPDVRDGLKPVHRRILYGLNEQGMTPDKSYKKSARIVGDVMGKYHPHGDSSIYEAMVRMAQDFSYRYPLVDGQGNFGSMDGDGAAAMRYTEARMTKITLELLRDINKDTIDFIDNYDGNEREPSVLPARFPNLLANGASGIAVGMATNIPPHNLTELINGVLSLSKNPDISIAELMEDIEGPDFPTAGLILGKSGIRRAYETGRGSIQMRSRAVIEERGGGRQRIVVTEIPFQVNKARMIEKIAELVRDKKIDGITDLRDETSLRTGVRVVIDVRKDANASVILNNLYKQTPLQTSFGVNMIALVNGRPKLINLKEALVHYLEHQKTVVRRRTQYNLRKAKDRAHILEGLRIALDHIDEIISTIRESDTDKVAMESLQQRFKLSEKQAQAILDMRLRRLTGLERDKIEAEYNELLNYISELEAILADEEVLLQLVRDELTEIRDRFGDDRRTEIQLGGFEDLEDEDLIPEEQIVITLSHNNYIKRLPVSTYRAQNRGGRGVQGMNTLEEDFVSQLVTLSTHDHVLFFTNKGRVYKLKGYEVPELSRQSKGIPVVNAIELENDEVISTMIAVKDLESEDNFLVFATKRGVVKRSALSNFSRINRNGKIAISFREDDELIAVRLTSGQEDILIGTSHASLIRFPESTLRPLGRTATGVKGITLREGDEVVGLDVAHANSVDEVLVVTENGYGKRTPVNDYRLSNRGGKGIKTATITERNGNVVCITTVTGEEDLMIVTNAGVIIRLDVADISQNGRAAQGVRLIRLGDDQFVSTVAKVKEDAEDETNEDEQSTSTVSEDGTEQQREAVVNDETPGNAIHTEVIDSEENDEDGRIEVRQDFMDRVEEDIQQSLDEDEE

T1 sequence (Q12809 whole entry): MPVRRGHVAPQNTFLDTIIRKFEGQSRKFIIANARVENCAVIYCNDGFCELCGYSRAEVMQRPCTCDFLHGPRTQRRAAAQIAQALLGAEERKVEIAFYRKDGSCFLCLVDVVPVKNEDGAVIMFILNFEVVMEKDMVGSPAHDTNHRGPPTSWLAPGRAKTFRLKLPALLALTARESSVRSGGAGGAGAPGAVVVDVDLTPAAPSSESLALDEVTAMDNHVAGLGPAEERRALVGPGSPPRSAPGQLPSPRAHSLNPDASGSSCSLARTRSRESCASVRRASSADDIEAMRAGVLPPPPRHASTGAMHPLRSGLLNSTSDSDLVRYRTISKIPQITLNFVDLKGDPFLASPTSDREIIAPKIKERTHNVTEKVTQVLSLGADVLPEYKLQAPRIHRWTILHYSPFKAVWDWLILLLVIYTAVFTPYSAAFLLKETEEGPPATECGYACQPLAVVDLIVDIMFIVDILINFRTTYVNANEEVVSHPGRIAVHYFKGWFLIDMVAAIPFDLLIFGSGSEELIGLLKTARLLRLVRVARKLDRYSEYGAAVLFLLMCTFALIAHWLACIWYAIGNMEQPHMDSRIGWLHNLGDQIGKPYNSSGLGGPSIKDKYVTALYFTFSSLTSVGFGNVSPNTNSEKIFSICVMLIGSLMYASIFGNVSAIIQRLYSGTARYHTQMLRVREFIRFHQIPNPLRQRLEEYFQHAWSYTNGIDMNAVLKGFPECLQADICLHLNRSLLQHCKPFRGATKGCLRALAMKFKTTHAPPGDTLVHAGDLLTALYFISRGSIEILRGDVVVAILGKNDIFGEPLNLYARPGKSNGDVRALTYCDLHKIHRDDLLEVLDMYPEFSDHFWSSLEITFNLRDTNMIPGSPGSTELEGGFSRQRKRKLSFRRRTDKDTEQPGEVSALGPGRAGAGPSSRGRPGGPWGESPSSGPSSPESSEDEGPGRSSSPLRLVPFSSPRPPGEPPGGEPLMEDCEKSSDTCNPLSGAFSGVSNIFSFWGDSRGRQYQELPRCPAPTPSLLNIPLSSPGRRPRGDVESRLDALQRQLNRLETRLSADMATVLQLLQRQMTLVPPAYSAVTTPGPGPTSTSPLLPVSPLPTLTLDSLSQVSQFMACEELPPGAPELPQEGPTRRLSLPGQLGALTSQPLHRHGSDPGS

SMILES | IC50 [1] [µM] | IC50 (K562) [µM] | IC50 [2] [µM] | MIC (Staphylococcus aureus [3]) [µg/mL] | MIC (Staphylococcus aureus [4]) [µg/mL] | IC50 [5] [µM] | Activity (Homo sapiens) [%] | other results
COc1ccc2nccc(CC[C@H]3CC[C@H](NCc4ccc5c(c4)OCCO5)CC3)c2c1 | 0.26 | 4.2 | 4.5 |  |  |  |  | 
COc1ccc2nccc(CC[C@H]3OC[C@H](NCc4ccc5c(n4)NC(=O)CO5)CO3)c2c1 | 2.5 | 24 | 44 | 0.5 (≈ 1.11 µM) | 1 (≈ 2.22 µM) | > 100 | 99.1 | 
COc1ccc2nccc(CC[C@H]3OC[C@H](NCc4ccccn4)CO3)c2c1 |  |  |  | 8 (≈ 21.1 µM) |  |  |  | 
COc1ccc2nccc(CC[C@H]3OC[C@H](NCc4cccnc4)CO3)c2c1 |  |  |  | > 64 |  |  |  | 
COc1ccc2nccc(CCN3CCC(NCc4ccc(Cl)c(Cl)c4)CC3)c2c1 | 1 |  |  |  |  |  |  | 
COc1ccc2nccc(CC[C@H]3OC[C@H](NCc4cc5c(cn4)OCCC5)CO3)c2c1 | 12 | 32 | 40 | 1 (≈ 2.3 µM) | 2 (≈ 4.59 µM) | 25 to 50 | 93.8 | 
COc1ccc2nccc(CC[C@H]3OC[C@H](NCc4ccccc4Cl)CO3)c2c1 |  |  |  | > 64 |  |  |  | 
O=c1ccc2ncc(=O)n3c2n1C[C@H]3CN1CCC(NCc2cc3c(cn2)OCCC3)CC1 [GEPOTIDACIN] |  |  |  |  |  |  |  | IC50 [6]: 1310 µM
COc1ccc2nccc(CC[C@H]3OC[C@H](NCc4cc5c(cn4)OCCO5)CO3)c2c1 | 9.5 | 40 | 48 | 1 to 2 (≈ 2.29 to 4.57 µM) | 2 (≈ 4.57 µM) | 50 | 95.1 | 
COc1ccc2nccc(CC[C@H]3CC[C@H](NCc4ccc(Cl)c(Cl)c4)CC3)c2c1 | 2.3 |  |  |  |  |  |  | 
CN[C@H](CC(C)C)C(=O)N[C@H]1C(=O)N[C@@H](CC(N)=O)C(=O)N[C@H]2C(=O)N[C@H]3C(=O)N[C@H](C(=O)N[C@H](C(=O)O)c4cc(O)cc(O)c4-c4cc3ccc4O)[C@H](O)c3ccc(c(Cl)c3)Oc3cc2cc(c3O[C@@H]2O[C@H](CO)[C@@H](O)[C@H](O)[C@H]2O[C@H]2C[C@](C)(N)[C@H](O)[C@H](C)O2)Oc2ccc(cc2Cl)[C@H]1O [VANCOMYCIN] |  |  |  |  | 1 to 2 (≈ 0.69 to 1.38 µM) |  |  | 
COc1ccc2nccc(CCN3CCC(NCc4cc5c(cn4)OCCO5)CC3)c2c1 | 1.9 | 28 | 22 |  |  |  |  | 
COc1ccc2nccc(CC[C@H]3OC[C@H](NCc4ccc5c(c4)OCCO5)CO3)c2c1 | 5.1 | 7.4 | 8.8 | 0.25 to 1 (≈ 0.573 to 2.29 µM) | 0.5 (≈ 1.15 µM) | 14 | 84.2 | selectivity ratio [7]: 3.5
COc1ccc2nccc(CC[C@H]3OC[C@H](NCc4ccccc4)CO3)c2c1 |  |  |  | > 64 |  |  |  | 
COc1ccc2nccc(CCN3CCC(NCc4ccc5c(c4)OCCO5)CC3)c2c1 | 0.81 | 10 | 12 |  |  |  |  | 
COc1ccc2nccc(CC[C@H]3OC[C@H](NCc4ccc(Cl)cn4)CO3)c2c1 |  |  |  | 8 (≈ 19.3 µM) |  |  |  | 
COc1ccc2nccc(CC[C@H]3OC[C@H](NCc4cccc(Cl)c4)CO3)c2c1 |  |  |  | 32 (≈ 77.5 µM) |  |  |  | 
O=C(O)c1cn(C2CC2)c2cc(N3CCNCC3)c(F)cc2c1=O [CIPROFLOXACIN] |  |  |  |  |  | 14.3 | 85.5 | 
COc1cc([C@@H]2c3cc4c(cc3[C@@H](O[C@@H]3O[C@@H]5CO[C@@H](C)O[C@H]5[C@H](O)[C@H]3O)[C@H]3COC(=O)[C@H]23)OCO4)cc(OC)c1O [ETOPOSIDE] |  | 0.3 | 5.1 |  |  |  | 33.6 | 
COc1ccc2nccc(CC[C@H]3OC[C@H](NCc4ccc(Cl)c(Cl)c4)CO3)c2c1 | 4.8 | 20 | 15 |  | 0.5 (≈ 1.12 µM) | > 100 | 93.2 | 
COc1ccc2nccc(CC[C@H]3OC[C@H](NCc4ccc5c(n4)NC(=O)CS5)CO3)c2c1 | 1.3 | 31 | 34 | 0.5 (≈ 1.07 µM) | 0.5 (≈ 1.07 µM) | > 100 | 91.1 | 
COc1ccc2nccc(CC[C@H]3CC[C@H](NCc4ccc5c(n4)NC(=O)CO5)CC3)c2c1 | 0.41 | 12 | 11 |  |  |  |  | 
COc1ccc2nccc(CCN3CCC(NCc4ccc5c(n4)NC(=O)CO5)CC3)c2c1 | 3.8 | 19 | 16 |  |  |  |  | 
COc1ccc2nccc(CC[C@H]3OC[C@H](NCc4ccc(Cl)cc4)CO3)c2c1 | 2 | 12 | 16 | 1 (≈ 2.42 µM) | 4 (≈ 9.69 µM) | > 100 | 97.8 | IC50 (DNA gyrase): 1.2 µM
COc1ccc2nccc(CC[C@H]3OC[C@H](NCc4ccc5c(c4)NC(=O)CO5)CO3)c2c1 |  |  |  | 1 to 2 (≈ 2.22 to 4.45 µM) | 1 (≈ 2.22 µM) | > 100 |  | 
COc1ccc2nccc(CC[C@H]3CC[C@H](NCc4cc5c(cn4)OCCO5)CC3)c2c1 | 0.94 | 7.5 | 5.7 |  |  |  |  | 
